Test results from the supplement of paper PMC13380429.

What was measured:
Details in all cases: 72 h
Vero E6 [1] = test: relative viability EC50 (midpoint between 100% and the lowest measured viability); higher = less toxic
Calu-3 [2] = test: as above
HepG2 [3] = test: as above
Caco-2 [4] = test: drug sensitivity score (DSS) for viability; higher = more toxic; extreme values may be limits of the assay
Vero E6 [5] = test: as above
U2OS [6] = test: as above
Calu-3 [7] = test: as above
HepG2 [8] = test: as above
Caco-2 [9] = test: cell viability relative to DMSO; higher = less toxic
Vero E6 [10] = test: as above
U2OS [11] = test: as above
Calu-3 [12] = test: as above
HepG2 [13] = test: as above
Caco-2 [14] = test: relative viability EC50 (midpoint between 100% and the lowest measured viability); higher = less toxic

SMILES	relative viability EC50 (Vero E6 [1]) [µM]	relative viability EC50 (Calu-3 [2]) [µM]	relative viability EC50 (HepG2 [3]) [µM]	drug sensitivity score (Caco-2 [4])	drug sensitivity score (Vero E6 [5])	drug sensitivity score (U2OS [6])	drug sensitivity score (Calu-3 [7])	drug sensitivity score (HepG2 [8])	cell viability (Caco-2 [9]; 1 nM) [%]	cell viability (Caco-2 [9]; 10 nM) [%]	cell viability (Caco-2 [9]; 100 nM) [%]	cell viability (Caco-2 [9]; 1000 nM) [%]	cell viability (Caco-2 [9]; 10000 nM) [%]	cell viability (Vero E6 [10]; 1 nM) [%]	cell viability (Vero E6 [10]; 10 nM) [%]	cell viability (Vero E6 [10]; 100 nM) [%]	cell viability (Vero E6 [10]; 1000 nM) [%]	cell viability (Vero E6 [10]; 10000 nM) [%]	cell viability (U2OS [11]; 1 nM) [%]	cell viability (U2OS [11]; 10 nM) [%]	cell viability (U2OS [11]; 100 nM) [%]	cell viability (U2OS [11]; 1000 nM) [%]	cell viability (U2OS [11]; 10000 nM) [%]	cell viability (Calu-3 [12]; 1 nM) [%]	cell viability (Calu-3 [12]; 10 nM) [%]	cell viability (Calu-3 [12]; 100 nM) [%]	cell viability (Calu-3 [12]; 1000 nM) [%]	cell viability (Calu-3 [12]; 10000 nM) [%]	cell viability (HepG2 [13]; 1 nM) [%]	cell viability (HepG2 [13]; 10 nM) [%]	cell viability (HepG2 [13]; 100 nM) [%]	cell viability (HepG2 [13]; 1000 nM) [%]	cell viability (HepG2 [13]; 10000 nM) [%]	relative viability EC50 (Caco-2 [14]) [µM]
COC(=O)Nc1nc2cc(Sc3ccccc3)ccc2[nH]1 [fenbendazole]	1.81	> 10	1.39	3.8	4.5	4.1	1	5.6	94.2	95.8	104	81.3	66.2	105	108	104	90.2	46.7	103	97.8	101	83.5	61.7	98.1	86.1	97.7	83.6	86.4	103	105	93.3	79.1	41	–
CCCCC1=NC2(CCCC2)C(=O)N1Cc1ccc(-c2ccccc2-c2nnn[nH]2)cc1 [irbesartan]	> 10	> 10	> 10	0	0	–	0	0	109	97.1	106	104	109	100	101	99.7	93.6	94.6	–	–	–	–	–	100	97.1	100	101	108	107	104	102	99.9	106	> 10
NC(=O)c1cccnc1 [nicotinamide]	> 10	> 10	> 10	0	0	–	0	0	100	107	94.9	99.2	101	107	108	102	104	99.5	–	–	–	–	–	107	114	120	110	94.1	114	103	101	101	90.2	> 10
Cc1cc(CCCOc2c(C)cc(-c3noc(C(F)(F)F)n3)cc2C)on1 [pleconaril]	> 10	> 10	> 10	0	0	–	0	0	96.6	102	103	102	105	94.2	96.8	91.6	92.5	98	–	–	–	–	–	97.8	93.7	96	90.3	93.9	98.6	94.2	102	103	112	> 10
CC(=O)Nc1ccc(OCC(O)CNC(C)C)cc1 (stereo not drawn) [practolol]	> 10	> 10	> 10	0.4	0	–	0	0	107	93.5	81.2	91.7	92	110	102	106	106	93.7	–	–	–	–	–	108	114	111	100	99.7	94.1	105	97.3	109	87.3	> 10
CCCN(CCC)C(=O)C(CCC(=O)O)NC(=O)c1ccccc1 (stereo not drawn) [proglumide]	> 10	> 10	> 10	0	0	–	0	0	102	105	95.7	104	102	104	100	98.8	97.8	107	–	–	–	–	–	100	113	104	89.9	96.2	98	104	107	109	106	> 10
c1ccc2c(c1)CCCC2C1=NCCN1 (stereo not drawn) [tetrahydrozoline]	–	> 10	> 10	0	0.7	–	0	0	105	101	99	92.5	106	68.7	103	61.2	108	68.4	–	–	–	–	–	109	97.9	112	110	99.5	93	104	91.2	100	104	> 10
COc1cc2ncc(-c3ccccc3)nc2cc1OC [tyrphostin-AG-1296]	> 10	> 10	> 10	0	0	–	0	0	92.7	104	91.6	96.2	95.4	95.4	99.8	96.3	98	99.5	–	–	–	–	–	102	86.2	91.3	84.8	100	107	108	98.1	106	95.8	> 10
